Results on 23 compounds are retold here after patent US20250312352A1, “GLP-1R MODULATING COMPOUNDS” (Gilead Sciences, Inc., priority 2021, published 2025).

By pEC50 is commonly meant the negative decadic logarithm of the EC50, by convention in mol/L. Read a high pEC50 as a low EC50.

pEC50: −log10 of the molar value.

In the experiment the target is T1, GLP-1R (Homo sapiens, UniProt P43220).
T1 construct: host or cells: CHO cells
T1 sequence (P43220 24-463): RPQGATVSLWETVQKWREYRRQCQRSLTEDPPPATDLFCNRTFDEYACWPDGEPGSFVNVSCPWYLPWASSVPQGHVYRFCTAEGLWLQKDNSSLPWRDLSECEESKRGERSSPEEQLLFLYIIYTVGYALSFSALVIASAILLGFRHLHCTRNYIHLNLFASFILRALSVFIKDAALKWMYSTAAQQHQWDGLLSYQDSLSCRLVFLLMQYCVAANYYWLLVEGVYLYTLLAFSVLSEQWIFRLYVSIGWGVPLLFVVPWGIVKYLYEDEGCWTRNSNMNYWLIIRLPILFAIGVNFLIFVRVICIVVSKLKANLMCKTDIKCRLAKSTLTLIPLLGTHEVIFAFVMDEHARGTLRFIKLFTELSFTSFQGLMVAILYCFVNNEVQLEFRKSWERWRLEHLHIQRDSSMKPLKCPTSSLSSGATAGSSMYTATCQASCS
The experiment is described as follows: GLP-1R activation cAMP assay (Assay 1 or Assay 2). The note with it: cAMP increase in CHO cells stably expressing GLP-1R; compounds run on one of the two cAMP assays. In kind it is cell-based. A digest of the protocol: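 EC50 values come from a sigmoidal fit of HTRF-detected cAMP rise versus log agonist concentration. GLP-1R-expressing CHO cells, equilibrated 1 h at 37 °C in HBSS with HEPES and BSA, received a 10-point compound dose series for 30 min before detection.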
Background: Changes in cAMP serve as a functional read-out for many G protein-coupled receptors.
Turning to `CNC(=O)c1cc(Cl)c(COc2cccc(-c3cc(F)c(Cc4nc5c(F)cc(C(=O)O)cc5n4C[C@@H]4CCO4)cc3C)n2)cn1` [Example 394, (S)-2-(4-(6-((4-chloro-6-(methylcarbamoyl)pyridin-3-yl)methoxy)pyridin-2-yl)-2-fluoro-5-methylbenzyl)-4-fluoro-1-(oxetan-2-ylmethyl)-1H-benzo[d]imidazole-6-carboxylic acid], the pEC50 is 9.21. `COc1nnc(COc2cccc(-c3ccc(Cc4nc5ccc(C(=O)O)cc5n4[C@@H]4COCC4(C)C)cc3F)n2)s1` [Example 400, (S)-1-(4,4-dimethyltetrahydrofuran-3-yl)-2-(3-fluoro-4-(6-((5-methoxy-1,3,4-thiadiazol-2-yl)methoxy)pyridin-2-yl)benzyl)-1H-benzo[d]imidazole-6-carboxylic acid] had a negative-log EC50 (pEC50) of 9.39. `O=C(O)c1ccc2nc(Cc3cc(F)c(-c4cccc(OCc5nnc(-c6cnn(C(F)F)c6)s5)n4)cc3F)n(C[C@@H]3CCO3)c2c1` [Example 92, (S)-2-(4-(6-((5-(1-(difluoromethyl)-1H-pyrazol-4-yl)-1,3,4-thiadiazol-2-yl)methoxy)pyridin-2-yl)-2,5-difluorobenzyl)-1-(oxetan-2-ylmethyl)-1H-benzo[d]imidazole-6-carboxylic acid]: the pEC50 is 10.15. Compared with the last compound, the pEC50 is 0.76 log units higher. As to `Cn1cc(-c2cnc(COc3nc(-c4cc(F)c(Cc5nc6ccc(C(=O)O)cc6n5C[C@@H]5CCO5)cc4F)ccc3F)s2)cn1` [Example 99, (S)-2-(2,5-difluoro-4-(5-fluoro-6-((5-(1-methyl-1H-pyrazol-4-yl)thiazol-2-yl)methoxy)pyridin-2-yl)benzyl)-1-(oxetan-2-ylmethyl)-1H-benzo[d]imidazole-6-carboxylic acid], the pEC50 was 9.85. This pEC50 lies 0.30 log units lower than the previous one. `O=C(O)c1ccc2nc(Cc3cc(F)c(-c4cccc(OCc5nnc(OCC(F)F)s5)n4)cc3F)n(C[C@@H]3CCO3)c2c1` [Example 352, (S)-2-(4-(6-((5-(2,2-difluoroethoxy)-1,3,4-thiadiazol-2-yl)methoxy)pyridin-2-yl)-2,5-difluorobenzyl)-1-(oxetan-2-ylmethyl)-1H-benzo[d]imidazole-6-carboxylic acid]: the negative logarithm of the EC50 (pEC50) is 9.28.

As to `COc1nnc(COc2cccc(-c3cc(F)c(Cc4nc5c(F)cc(C(=O)O)cc5n4CC4(CF)CC4)cc3F)n2)s1` [Example 411, 2-(2,5-difluoro-4-(6-((5-methoxy-1,3,4-thiadiazol-2-yl)methoxy)pyridin-2-yl)benzyl)-4-fluoro-1-((1-(fluoromethyl)cyclopropyl)methyl)-1H-benzo[d]imidazole-6-carboxylic acid], the pEC50 was 9.50. Against the preceding compound, the pEC50 is 0.22 log units higher. As to `Cn1cc(-c2cnc(COc3cccc(-c4cc(F)c(Cc5nc6ccc(C(=O)O)cc6n5[C@H]5COCC5(C)C)cc4F)n3)s2)cn1` [Example 97, (R)-2-(2,5-difluoro-4-(6-((5-(1-methyl-1H-pyrazol-4-yl)thiazol-2-yl)methoxy)pyridin-2-yl)benzyl)-1-(4,4-dimethyltetrahydrofuran-3-yl)-1H-benzo[d]imidazole-6-carboxylic acid], the negative-log EC50 (pEC50) was 9.96. This pEC50 is 0.46 log units higher than that of the compound before.

Consider `CCOc1nnc(COc2nc(-c3cc(F)c(Cc4nc5ccc(C(=O)O)cc5n4[C@@H]4COCC4(C)C)cc3C)ccc2F)s1` [Example 262, (S)-1-(4,4-dimethyltetrahydrofuran-3-yl)-2-(4-(6-((5-ethoxy-1,3,4-thiadiazol-2-yl)methoxy)-5-fluoropyridin-2-yl)-2-fluoro-5-methylbenzyl)-1H-benzo[d]imidazole-6-carboxylic acid], for which the pEC50 is 9.87. On to `CCOc1nnc(COc2cccc(-c3cc(F)c(Cc4nc5ccc(C(=O)O)c(F)c5n4CCOC)cc3F)n2)s1` [Example 396, 2-(4-(6-((5-ethoxy-1,3,4-thiadiazol-2-yl)methoxy)pyridin-2-yl)-2,5-difluorobenzyl)-7-fluoro-1-(2-methoxyethyl)-1H-benzo[d]imidazole-6-carboxylic acid], for which the pEC50 was 9.17. On to `COCCn1c(Cc2cc(F)c(-c3cccc(OCc4ccc(C#CC5CNC5)cc4F)n3)cc2F)nc2ccc(C(=O)O)cc21` [Example 232, 2-(4-(6-((4-(azetidin-3-ylethynyl)-2-fluorobenzyl)oxy)pyridin-2-yl)-2,5-difluorobenzyl)-1-(2-methoxyethyl)-1H-benzo[d]imidazole-6-carboxylic acid], for which the pEC50 is 8.25. This pEC50 lies 0.92 log units lower than the previous one. For `O=C(O)c1cc(F)c2nc(Cc3cc(F)c(-c4cccc(OCc5ccc(C#Cc6cnc(N7CC8CCC(C7)N8C7COC7)nc6)cc5F)n4)cc3F)n(C[C@@H]3CCO3)c2c1` [Example 152, 2-(2,5-difluoro-4-(6-((2-fluoro-4-((2-(8-(oxetan-3-yl)-3,8-diazabicyclo[3.2.1]octan-3-yl)pyrimidin-5-yl)ethynyl)benzyl)oxy)pyridin-2-yl)benzyl)-4-fluoro-1-(((S)-oxetan-2-yl)methyl)-1H-benzo[d]imidazole-6-carboxylic acid], the pEC50 is 9.17. Against the preceding compound, the pEC50 is 0.92 log units higher. In the case of `COCCn1c(Cc2cc(F)c(-c3cccc(OCc4ccc(-n5cnc(C6CC6)n5)nc4)n3)cc2F)nc2ccc(C(=O)O)cc21` [Example 250, 2-(4-(6-((6-(3-cyclopropyl-1H-1,2,4-triazol-1-yl)pyridin-3-yl)methoxy)pyridin-2-yl)-2,5-difluorobenzyl)-1-(2-methoxyethyl)-1H-benzo[d]imidazole-6-carboxylic acid], the pEC50 was 7.65. With `N#Cc1cnc(COc2cccc(-c3cc(F)c(Cc4nc5ccc(C(=O)O)cc5n4C[C@@H]4CCO4)cc3F)n2)s1` [Example 2, (S)-2-(4-(6-((5-cyanothiazol-2-yl)methoxy)pyridin-2-yl)-2,5-difluorobenzyl)-1-(oxetan-2-ylmethyl)-1H-benzo[d]imidazole-6-carboxylic acid], the pEC50 was 9.96. For `N#Cc1ccc(C#Cc2cnc(COc3cccc(-c4cc(F)c(Cc5nc6ccc(C(=O)O)cc6n5C[C@@H]5CCO5)cc4F)n3)s2)cc1` [Example 325, (S)-2-(4-(6-((5-((4-cyanophenyl)ethynyl)thiazol-2-yl)methoxy)pyridin-2-yl)-2,5-difluorobenzyl)-1-(oxetan-2-ylmethyl)-1H-benzo[d]imidazole-6-carboxylic acid], the pEC50 is 9.24. In the case of `N#Cc1cc(COc2cccc(-c3cc(F)c(Cc4nc5ccc(C(=O)O)cc5n4C[C@@H]4CCO4)cc3F)n2)cs1` [Example 128, (S)-2-(4-(6-((5-cyanothiophen-3-yl)methoxy)pyridin-2-yl)-2,5-difluorobenzyl)-1-(oxetan-2-ylmethyl)-1H-benzo[d]imidazole-6-carboxylic acid], the pEC50 is 8.71.

As for `O=C(O)c1ccc2nc(Cc3cc(F)c(-c4cccc(OCc5cnc(C(=O)NC6(C(F)F)CC6)cc5Cl)n4)cc3F)n(C[C@@H]3CCO3)c2c1` [Example 186, (S)-2-(4-(6-((4-chloro-6-((1-(difluoromethyl)cyclopropyl)carbamoyl)pyridin-3-yl)methoxy)pyridin-2-yl)-2,5-difluorobenzyl)-1-(oxetan-2-ylmethyl)-1H-benzo[d]imidazole-6-carboxylic acid], the negative logarithm of the EC50 (pEC50) is 9.04.

As for `CC(F)(F)c1cnc(COc2nc(-c3cc(F)c(Cc4nc5c(F)cc(C(=O)O)cc5n4C[C@@H]4CCO4)cc3F)ccc2F)s1` [Example 309, (S)-2-(4-(6-((5-(1,1-difluoroethyl)thiazol-2-yl)methoxy)-5-fluoropyridin-2-yl)-2,5-difluorobenzyl)-4-fluoro-1-(oxetan-2-ylmethyl)-1H-benzo[d]imidazole-6-carboxylic acid], the pEC50 was 10.08. The compound `O=C(O)c1ccc2nc(Cc3cc(F)c(-c4cccc(OCc5nnc(OC6CC(C(F)F)C6)s5)n4)cc3F)n(C[C@@H]3CCO3)c2c1` (stereo partly drawn) [Example 347, (S)-2-(4-(6-((5-(3-(difluoromethyl)cyclobutoxy)-1,3,4-thiadiazol-2-yl)methoxy)pyridin-2-yl)-2,5-difluorobenzyl)-1-(oxetan-2-ylmethyl)-1H-benzo[d]imidazole-6-carboxylic acid] had a pEC50 of 9.57. In turn, `Cn1nc(COc2cccc(-c3cc(F)c(Cc4nc5ccc(C(=O)O)cc5n4C[C@@H]4CCO4)cc3F)n2)c2c1CCC2` [Example 73, (S)-2-(2,5-difluoro-4-(6-((1-methyl-1,4,5,6-tetrahydrocyclopenta[c]pyrazol-3-yl)methoxy)pyridin-2-yl)benzyl)-1-(oxetan-2-ylmethyl)-1H-benzo[d]imidazole-6-carboxylic acid] had a pEC50 of 8.96. Compared with the last compound, the pEC50 is 0.61 log units lower.

Compound `Cc1nc(COc2cccc(-c3cc(F)c(Cc4nc5ccc(C(=O)O)cc5n4C[C@@H]4CCO4)cc3F)n2)cn1C(F)F` [Example 180, (S)-2-(4-(6-((1-(difluoromethyl)-2-methyl-1H-imidazol-4-yl)methoxy)pyridin-2-yl)-2,5-difluorobenzyl)-1-(oxetan-2-ylmethyl)-1H-benzo[d]imidazole-6-carboxylic acid] gave a pEC50 of 7.55. On to `NC(=O)c1ccc(COc2cccc(-c3cc(F)c(Cc4nc5ccc(C(=O)O)cc5n4C[C@@H]4CCO4)cc3F)n2)s1` [Example 127, (S)-2-(4-(6-((5-carbamoylthiophen-2-yl)methoxy)pyridin-2-yl)-2,5-difluorobenzyl)-1-(oxetan-2-ylmethyl)-1H-benzo[d]imidazole-6-carboxylic acid], for which the pEC50 is 8.43.

`O=C(O)c1ccc2nc(Cc3cc(F)c(-c4cccc(OCc5ncc(-c6cnn(C7COC7)c6)s5)n4)cc3F)n(C[C@@H]3CCO3)c2c1` [Example 80, (S)-2-(2,5-difluoro-4-(6-((5-(1-(oxetan-3-yl)-1H-pyrazol-4-yl)thiazol-2-yl)methoxy)pyridin-2-yl)benzyl)-1-(oxetan-2-ylmethyl)-1H-benzo[d]imidazole-6-carboxylic acid] showed a pEC50 of 9.72. The figure for `COc1nnc(COc2nc(-c3cc(F)c(Cc4nc5ccc(C(=O)O)cc5n4[C@@H]4COCC4(C)C)cc3F)ccc2F)s1` [Example 339, (S)-2-(2,5-difluoro-4-(5-fluoro-6-((5-methoxy-1,3,4-thiadiazol-2-yl)methoxy)pyridin-2-yl)benzyl)-1-(4,4-dimethyltetrahydrofuran-3-yl)-1H-benzo[d]imidazole-6-carboxylic acid] is 10.37.
